Converted amounts (≈) assume the structure as drawn.
Legend:
Solubility in xylene = assay type: physicochemical; details: organic solvent or mixture, o-xylene, 20° C., dark, liquid chromatography
Protocol: To illustrate the improved solubility in a common formulation solvent, xylene, of the compounds according to the invention, solubility tests were carried out with certain of these compounds and closely related compounds known from the literature. The test method is described below.
The compound (200 mg) was equilibrated with solvent (0.5 ml of o-xylene at 20° C. in the dark for 48 hours). After equilibration, the supernatant liquors were removed, centrifuged and then filtered. An aliquot portion of this (0.1 ml) was made up to volume (1 to 100 ml) with acetonitrile and then analyzed against standards by means of liquid chromatography.

Aedes aegypti larvae = assay: Insecticidal activity, larvae in treated water (Test 1 (b)), toxicity vs parathion; assay type: in vivo, mosquito (Aedes aegypti); set-up: key: Toxicity Index: parathion = 100; 200 = twice as active, 50 = half; details: early fourth instar larvae; final mortality when all larvae emerged as adults or died; 50% mortality basis; standard parathion = 100
Protocol: (§1) The insecticidal and ovicidal activities of the compounds of the invention were assessed employing the pests, Egyptian cotton leafworm (Spodoptera littoralis, S.l.), mosquito (Aedes aegypti, A.a.) and eggs of Spodoptera littoralis, S.l.ov.
(§2) The test methods used for each species are described below. In each case the tests were conducted under normal insectary conditions (28° C.[…]; fluctuating light and humidity).
(§3) In each instance, the toxicity of the compound of the invention was compared to that of a standard pesticide (parathion), its relative toxicity then being expressed in terms of the relationship between the amount of compound of the invention and the amount of the standard pesticide required to produce the same percentage (50%) of mortality in the test insect. By assigning the standard pesticide an arbitrary rating of 100, the toxicities of the compounds of the invention were expressed in terms of the toxicity indices, which compares the toxicity of the compounds of the invention with that of the standard pesticide. That is to say, a test compound having a Toxicity Index of 50 would be half as active, while one having a Toxicity Index of 200 would be twice as active as the standard pesticide.
(b) Aedes aegypti--Several solutions of the test compound of varying concentration were prepared in acetone. 100 microliter quantities were added to 100 milliliters of tap water, the acetone being allowed to evaporate off. Ten early fourth instar larvae were placed in the test solution; after 48 hours the (surviving) larvae were fed with animal feed pellets, and the final percentage mortality assessed when all the larvae had either pupated and emerged as adults or died.

[1] = tested on: eggs of Spodoptera littoralis; assay: Ovicidal activity, sprayed eggs (Test 1 (c)), toxicity vs parathion; assay type: in vivo, Egyptian cotton leafworm (Spodoptera littoralis); details: eggs less than 24 hours old; approximately five days; 50% mortality basis; standard parathion = 100
Protocol: as §1, §2, §3
(c) Spodoptera littoralis (ovicide)--Solutions as described in (a) above were prepared. Eggs less than 24 hours old were obtained as follows. Adult Spodoptera littoralis were held in large plastic cylinders containing blotting paper on which the moths laid their batches of eggs. Egg batches containing approximately 60-70 eggs were cut from the blotting paper with a 1 cm surround. These were placed, eggs uppermost, on filter paper in the deeper half of 5 cm disposable petri dishes and each batch of eggs was then sprayed with a different test solution or the control solution. The dishes were covered until the control eggs had hatched, approximately five days. The percentage ovicidal mortality was then calculated.

[2] = tested on: Spodoptera littoralis larvae; assay: Insecticidal activity, sprayed diet (Test 1 (a)), toxicity vs parathion; assay type: in vivo, Egyptian cotton leafworm (Spodoptera littoralis); details: second instar larvae; mortality 7 days after spraying; 50% mortality basis; standard parathion = 100
Protocol: as §1, §2
as §3, with “pesticide.” for “pesticide. That is to say, a test compound having a Toxicity Index of 50 would be half as active, while one having a Toxicity Index of 200 would be twice as active as the standard pesticide.”
(a) Spodoptera littoralis--A solution or suspension of the test compound was made up over a range of concentrations in 10% acetone/water containing 0.025% Triton X100 (as surfactant). These solutions were sprayed using a logarithmic spraying machine onto petri dishes containing a nutritious diet on which the Spodoptera littoralis larvae had been reared. When the spray deposit had dried each dish was infested with 10 second instar larvae. Mortality assessments were made 7 days after spraying.

Row | SMILES | solubility at 48 h (Solubility in xylene) [µg/mL] | Toxicity Index A.a. (Aedes aegypti larvae) | Toxicity Index S.l.ov. [1] | Toxicity Index S.l. [2]
1 | O=C(NC(=O)c1c(F)cccc1F)Nc1ccc(Oc2ccc(C(F)(F)F)cc2Cl)cc1 [1-(4-(4-trifluoromethyl-2-chlorophenoxy)phenyl)-3-(2,6-difluorobenzoyl)urea, reference compound] | 5700 (≈ 12.1 mM) |  |  | 
2 | O=C(NC(=O)c1ccccc1Cl)Nc1ccc(OC(F)(F)F)cc1 [1-(4-trifluoromethoxy-phenyl)-3-(2-chloro-benzoyl)-urea, reference compound] | 2300 (≈ 6.41 mM) |  |  | 
3 | O=C(NC(=O)N(Sc1ccccc1[N+](=O)[O-])c1cc(Cl)c(Oc2ccc([N+](=O)[O-])cc2)c(Cl)c1)c1c(F)cccc1F [Example 38] |  | 30 | 0 | 330

The next lines start with results.

Row | solubility at 48 h (Solubility in xylene) [µg/mL] | SMILES | Toxicity Index A.a. (Aedes aegypti larvae) | Toxicity Index S.l.ov. [1] | Toxicity Index S.l. [2]
4 | 3700 (≈ 7.23 mM) | O=C(NC(=O)N(Sc1ccccc1[N+](=O)[O-])c1ccc(OC(F)(F)F)cc1)c1ccccc1Cl [Example 1, 2-Chloro-N-[[[4-(trifluoromethoxy)phenyl]-N-[(2-nitrophenyl)thio]amino]carbonyl]benzamide] | 220 | 210 | 750
5 | 18800 (≈ 30.1 mM) | O=C(NC(=O)N(Sc1ccccc1[N+](=O)[O-])c1ccc(Oc2ccc(C(F)(F)F)cc2Cl)cc1)c1c(F)cccc1F [Example 3] |  | 0 | 4500

— patent US4497822A, “Insecticidal N-benzoyl-N'-phenyl-N'-(R-thio)ureas” (Shell Oil Company, priority 1982, dated 1985)
